Target: PSMA (Homo sapiens, UniProt Q04609)
Assay: fluorescence-based PSMA binding assay
Details: read-out: PSMA binding affinity Ki

Sequence of PSMA (Q04609 whole entry): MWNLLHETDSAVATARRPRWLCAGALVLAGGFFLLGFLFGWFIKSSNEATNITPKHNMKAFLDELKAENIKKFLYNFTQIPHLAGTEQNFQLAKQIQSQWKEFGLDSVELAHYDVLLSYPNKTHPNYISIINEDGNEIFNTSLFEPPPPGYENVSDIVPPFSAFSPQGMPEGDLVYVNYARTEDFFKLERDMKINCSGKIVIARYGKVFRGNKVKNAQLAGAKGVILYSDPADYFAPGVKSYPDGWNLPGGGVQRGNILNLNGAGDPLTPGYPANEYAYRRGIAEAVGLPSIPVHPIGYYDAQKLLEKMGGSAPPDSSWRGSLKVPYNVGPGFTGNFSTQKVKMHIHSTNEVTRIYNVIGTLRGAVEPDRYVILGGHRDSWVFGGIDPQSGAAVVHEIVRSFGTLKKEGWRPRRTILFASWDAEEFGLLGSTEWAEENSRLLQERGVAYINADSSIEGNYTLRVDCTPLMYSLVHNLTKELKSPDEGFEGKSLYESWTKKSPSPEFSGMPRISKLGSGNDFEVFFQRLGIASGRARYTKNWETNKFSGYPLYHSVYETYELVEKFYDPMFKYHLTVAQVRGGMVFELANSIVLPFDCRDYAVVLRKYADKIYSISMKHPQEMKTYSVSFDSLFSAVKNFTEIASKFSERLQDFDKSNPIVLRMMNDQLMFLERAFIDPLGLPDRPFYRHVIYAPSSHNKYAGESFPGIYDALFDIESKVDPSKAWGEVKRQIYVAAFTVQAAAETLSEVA

In the case of `C=Cc1c(C)c2cc3nc(c4c5[nH]c(cc6nc(cc1[nH]2)C(C)=C6CC)c(C)c5C(=O)C4)[C@H](CCC(=O)NCCCCC(NC(=O)CCCCCCC(=O)NCCCC[C@H](NC(=O)N[C@@H](CCC(=O)O)C(=O)O)C(=O)O)C(=O)O)[C@H]3C` (stereo partly shown) [YC-6], the Ki is reported as 1.2 nM.
